Measurements from publication PMC5379148, “A phase I study of intravenous and oral rucaparib in combination with chemotherapy in patients with advanced solid tumours” (British Journal of Cancer, 2017).
Like-named read-outs stand apart in the source and are kept apart here.

How the values were obtained:
[1] = Plasma pharmacokinetics of rucaparib (LC-MS/MS, noncompartmental); settings: human, plasma, po; for Cmax / AUC(0-t) / AUC(0-inf): geometric mean (CV%); for Tmax at 14 days / Tmax: median (minimum, maximum); for AUC(0-inf): AUCinf
Experimental: (§1) On cycle 1 days −10, −5, 1, and 14, plasma samples were obtained from all patients before rucaparib dosing and at 15 and 30 min, and at 1, 1.5, 2.5, 4, 6, 10, and 24 h after the start of the rucaparib administration (i.v. infusion (day −10) or oral (days −5, 1, and 14)). On cycle 1 days −10 and −5, samples were also obtained 48 h after the start of rucaparib administration. Rucaparib concentration was determined using liquid chromatography with tandem mass spectrometry.
(§2) Plasma clearance or apparent plasma clearance and steady-state volume of distribution were calculated for rucaparib. The oral bioavailability of rucaparib was calculated as the ratio of dose-normalised AUC0–t or AUCinf (data permitting) determined using oral rucaparib PK data collected on cycle 1 day −5 to that determined using the i.v. PK data collected on cycle 1 day −10. Pharmacokinetic parameters were summarised with the geometric mean and the coefficient of variation (CV). The ratio of Cmax and AUC0–24 of rucaparib administered in combination with chemotherapies to those of rucaparib alone was calculated and summarised, with mean and CV% to evaluate the effect of chemotherapies on the PK of rucaparib for both the i.v. dose (day −10) and oral dose (day −5).
(§3) The oral bioavailability of rucaparib was calculated as the ratio of dose-normalised AUC0-t or AUCinf (data permitting) determined using oral rucaparib PK data collected on cycle 1 day –5 to that determined using the intravenous PK data collected on cycle 1 day –10. The tmax was summarised with medians and ranges. The accumulation ratio after multiple oral rucaparib dosing (once daily) was assessed as the ratio of the AUC0-24 determined using PK collected on cycle 1 day 14 to the AUC0-24 after the cycle 1 day –5 lead-in dose. The ratio of the Cmax on day 14 to the Cmax on day –5 was also calculated. Additionally, the ratio of the AUC0-24 on cycle 1 day 14 to the AUCinf after the cycle 1 day –5 lead-in dose was calculated as an indication for any time-dependent change in rucaparib PK.

[2] = system: patients with advanced solid tumours; assay: Dose-limiting toxicities in cycle 1 and maximum tolerated dose; format: in vivo, human; settings: days 1–14, with AUC5 carboplatin day 1, 21-day cycles
Experimental: Initially, at least three patients were treated at each dose level. If no DLT was observed, the dose was escalated for the next cohort of three patients. […] If no further DLT was observed, the next dose level was opened. […] When a dose was concluded to be above the MTD, the preceding lower dose was declared the MTD, but only if six patients had already been treated at this lower dose.
All patients who received at least one dose of study medication were evaluable for toxicity.

[3] = in vivo
Experimental: as §1, §2, §3

[4] = system: patients with advanced solid tumours; settings: single-agent oral rucaparib; ref Kristeleit et al, 2014; cited from earlier work
clinical = settings: human, in vivo; for half-life: t1/2
Experimental: as §1, §2, §3

[5] = 180 mg, oral 180 mg q.d. for 14 days
[6] = 180 mg, single oral dose 180 mg, day 1
[7] = 180 mg, single oral dose 180 mg, day –5
[8] = 240 mg, single oral dose 240 mg, day 1
[9] = 240 mg, single oral dose 240 mg, day –5
[10] = 240 mg, oral 240 mg q.d. for 14 days
[11] = 360 mg, single oral dose 360 mg, day 1
[12] = 360 mg, single oral dose 360 mg, day –5
[13] = 360 mg, oral 360 mg q.d. for 14 days

CNCc1ccc(-c2[nH]c3cc(F)cc4c3c2CCNC4=O)cc1 [rucaparib]
Cmax [1, 5]: 454 ng/mL
Cmax [1, 6]: 527 ng/mL
Cmax [1, 7]: 410 ng/mL
Tmax at 14 days [1, 5]: 4 h
Tmax [1, 6]: 6 h
Tmax [1, 7]: 4 h
AUC(0-t) ([1]; 240 mg, AUC0-24, oral 240 mg q.d. for 14 days): 7560 ng·h/mL
AUC(0-t) ([1]; 240 mg, AUC0-24, single oral dose 240 mg, day 1): 5130 ng·h/mL
AUC(0-t) ([1]; 240 mg, AUC0-24, single oral dose 240 mg, day –5): 5030 ng·h/mL
AUC(0-inf) [1, 8]: 4370 ng·h/mL
AUC(0-inf) [1, 9]: 6990 ng·h/mL
Cmax [1, 10]: 527 ng/mL
Cmax [1, 8]: 493 ng/mL
Cmax [1, 9]: 442 ng/mL
Tmax at 14 days [1, 10]: 4 h
Tmax [1, 8]: 4 h
Tmax [1, 9]: 4 h
AUC(0-t) ([1]; 360 mg, AUC0-24, oral 360 mg q.d. for 14 days): 15600 ng·h/mL
AUC(0-t) ([1]; 360 mg, AUC0-24, single oral dose 360 mg, day 1): 8280 ng·h/mL
AUC(0-t) ([1]; 360 mg, AUC0-24, single oral dose 360 mg, day –5): 9170 ng·h/mL
AUC(0-inf) [1, 11]: 9980 ng·h/mL
AUC(0-inf) [1, 12]: 11000 ng·h/mL
Cmax [1, 13]: 1050 ng/mL
Cmax [1, 11]: 697 ng/mL
Cmax [1, 12]: 814 ng/mL
Tmax at 14 days [1, 13]: 4 h
Tmax [1, 11]: 4 h
Tmax [1, 12]: 4 h
MTD of oral rucaparib in the combination [2]: 240 mg once daily (q.d.)
change in t1/2 at steady state compared with a single dose ([3]; human): no change
Ratio of rucaparib AUC0–24, day 1/day −10 ([3]; human, iv, 24 mg): 1.02 (15)
Ratio of rucaparib Cmax, day 1/day −10 ([3]; human, iv, 24 mg): 1.03 (16)
average increase of steady-state AUC0–24 compared with a single dose ([3]; human, po): 61%
CL/F ([3]; human, po, 12 mg): 53.4 (39.7) L h^–1
CL/F ([3]; human, po, 36 mg): 32.7 (41.9) L h^–1
CL/F ([3]; human, po, 48 mg): 52.1 (150) L h^–1
CL/F ([3]; human, po, 72 mg): 65.9 (49.4) L h^–1
AR, accumulation ratio [AUC0-24, Day 14/AUC0-24, Day -5] ([3]; human, po, 80 mg): 1.19 (-)
ARcm, accumulation ratio of Cmax on day 14 to Cmax on day –5 ([3]; human, po, 80 mg): 1.50 (-)
AUC ratio [time-dependent linearity] ([3]; human, po, 80 mg): 0.655 (-)
AR, accumulation ratio [AUC0-24, Day 14/AUC0-24, Day -5] ([3]; human, po, 120 mg): 1.49 (104)
ARcm, accumulation ratio of Cmax on day 14 to Cmax on day –5 ([3]; human, po, 120 mg): 1.41 (99.8)
AUC ratio [time-dependent linearity] ([3]; human, po, 120 mg): 1.14 (101)
AR, accumulation ratio [AUC0-24, Day 14/AUC0-24, Day -5] ([3]; human, po, 180 mg): 1.36 (8.48)
ARcm, accumulation ratio of Cmax on day 14 to Cmax on day –5 ([3]; human, po, 180 mg): 1.11 (31.1)
AUC ratio [time-dependent linearity] ([3]; human, po, 180 mg): 0.785 (13.3)
CL/F ([3]; human, po, 180 mg): 21.4 (68.6) L h^–1
AR, accumulation ratio [AUC0-24, Day 14/AUC0-24, Day -5] ([3]; human, po, 240 mg): 1.64 (28.2)
ARcm, accumulation ratio of Cmax on day 14 to Cmax on day –5 ([3]; human, po, 240 mg): 1.30 (29.7)
AUC ratio [time-dependent linearity] ([3]; human, po, 240 mg): 1.01 (31.6)
AR, accumulation ratio [AUC0-24, Day 14/AUC0-24, Day -5] ([3]; human, po, 360 mg): 1.7 (46.3)
ARcm, accumulation ratio of Cmax on day 14 to Cmax on day –5 ([3]; human, po, 360 mg): 1.29 (46.1)
AUC ratio [time-dependent linearity] ([3]; human, po, 360 mg): 1.06 (53.1)
dose dependence of exposure [3]: increased approximately dose proportionally
effect of carboplatin coadministration on rucaparib oral PK ([3]; po): not affected
recommended phase II dose [4]: 600 mg twice daily
clearance (clinical; iv, 12 mg): 270 mL/min
half-life (clinical; iv, 12 mg): 18.7 h
clearance (clinical; iv, 18 mg): 307 mL/min
half-life (clinical; iv, 18 mg): 16.4 h
clearance (clinical; iv, 24 mg): 233 mL/min
half-life (clinical; iv, 24 mg): 20.7 h
clearance (clinical; iv, 27 mg): 237 mL/min
half-life (clinical; iv, 27 mg): 16.8 h
clearance (clinical; iv, 40 mg): 232 mL/min
half-life (clinical; iv, 40 mg): 11.9 h
half-life (clinical; po, 12 mg): 18.6 h
half-life (clinical; po, 36 mg): 18 h
half-life (clinical; po, 48 mg): 20.3 h
half-life (clinical; po, 72 mg): 25.1 h
half-life (clinical; po, 80 mg): 20.1 h
half-life (clinical; po, 120 mg): 13.3 h
half-life (clinical; po, 180 mg): 19.2 h
half-life (clinical; po, 240 mg): 17.7 h
half-life (clinical; po, 360 mg): 18.2 h
half-life (clinical): ~17 h
